In ChEMBL document CHEMBL1133759, “6beta-Acyloxy(nor)tropanes: affinities for antagonist/agonist binding sites on transfected and native muscarinic receptors” (J Med Chem, 2000):

How the values were obtained:
[1] = molecular target: T1, Muscarinic acetylcholine receptor M1 (Homo sapiens, UniProt P11229); assay: The binding affinity was measured as inhibition of binding of [3H]- quinuclidinyl benzilate to Muscarinic acetylcholine receptor M1 in membranes of CHO cells; assay type: cell membranes
T1 sequence (P11229 whole entry): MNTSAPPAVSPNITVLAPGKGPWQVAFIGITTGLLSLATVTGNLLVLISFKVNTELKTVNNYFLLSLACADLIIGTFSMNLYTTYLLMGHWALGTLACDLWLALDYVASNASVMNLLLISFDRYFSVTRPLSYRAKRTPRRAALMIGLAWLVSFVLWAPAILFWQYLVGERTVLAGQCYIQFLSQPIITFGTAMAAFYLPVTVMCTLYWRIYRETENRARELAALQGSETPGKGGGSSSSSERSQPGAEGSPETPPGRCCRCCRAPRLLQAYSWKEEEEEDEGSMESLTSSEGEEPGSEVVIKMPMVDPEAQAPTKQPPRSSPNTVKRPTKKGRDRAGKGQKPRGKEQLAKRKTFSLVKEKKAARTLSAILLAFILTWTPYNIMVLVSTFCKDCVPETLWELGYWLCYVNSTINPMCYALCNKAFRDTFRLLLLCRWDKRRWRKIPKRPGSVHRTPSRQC

[2] = molecular target: T2, Muscarinic acetylcholine receptor M4 (Homo sapiens, UniProt P08173); assay: Inhibition of [3H]- oxotremorine-M binding to human Muscarinic acetylcholine receptor M4 in CHO cell membranes
T2 sequence (P08173 whole entry): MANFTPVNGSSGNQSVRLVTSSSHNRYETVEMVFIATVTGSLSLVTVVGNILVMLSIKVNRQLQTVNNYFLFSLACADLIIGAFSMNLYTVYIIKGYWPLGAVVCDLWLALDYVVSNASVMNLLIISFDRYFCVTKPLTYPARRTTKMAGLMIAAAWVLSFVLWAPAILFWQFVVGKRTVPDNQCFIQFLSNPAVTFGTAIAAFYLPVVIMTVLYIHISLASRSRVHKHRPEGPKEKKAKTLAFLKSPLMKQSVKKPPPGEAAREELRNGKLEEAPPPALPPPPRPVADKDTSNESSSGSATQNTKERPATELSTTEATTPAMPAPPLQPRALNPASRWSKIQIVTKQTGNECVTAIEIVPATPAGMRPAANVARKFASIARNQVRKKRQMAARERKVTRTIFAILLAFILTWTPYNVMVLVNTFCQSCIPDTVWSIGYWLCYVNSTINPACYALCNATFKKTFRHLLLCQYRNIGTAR

[3] = molecular target: T3, Muscarinic acetylcholine receptor M3 (Homo sapiens, UniProt P20309); assay type: cell membranes, CHO
Target sequence in this assay (P20309 whole entry): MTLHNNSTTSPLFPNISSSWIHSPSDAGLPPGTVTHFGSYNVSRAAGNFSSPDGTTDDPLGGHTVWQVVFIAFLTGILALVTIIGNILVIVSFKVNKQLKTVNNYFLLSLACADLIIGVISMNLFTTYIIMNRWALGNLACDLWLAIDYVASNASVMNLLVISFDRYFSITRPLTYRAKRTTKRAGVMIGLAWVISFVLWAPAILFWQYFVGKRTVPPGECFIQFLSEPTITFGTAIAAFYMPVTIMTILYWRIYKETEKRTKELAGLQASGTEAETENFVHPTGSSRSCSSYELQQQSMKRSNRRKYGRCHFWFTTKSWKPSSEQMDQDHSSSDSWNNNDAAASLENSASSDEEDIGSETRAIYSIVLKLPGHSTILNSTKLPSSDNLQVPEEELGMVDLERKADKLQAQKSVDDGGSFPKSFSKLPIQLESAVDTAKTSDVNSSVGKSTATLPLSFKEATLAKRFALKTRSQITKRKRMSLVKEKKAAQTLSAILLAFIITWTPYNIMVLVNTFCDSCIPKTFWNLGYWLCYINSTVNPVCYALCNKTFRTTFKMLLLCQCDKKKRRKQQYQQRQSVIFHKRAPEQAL

[4] = molecular target: T4, Muscarinic acetylcholine receptor M2 (Homo sapiens, UniProt P08172); assay type: cell membranes, CHO
T4 sequence (P08172 whole entry): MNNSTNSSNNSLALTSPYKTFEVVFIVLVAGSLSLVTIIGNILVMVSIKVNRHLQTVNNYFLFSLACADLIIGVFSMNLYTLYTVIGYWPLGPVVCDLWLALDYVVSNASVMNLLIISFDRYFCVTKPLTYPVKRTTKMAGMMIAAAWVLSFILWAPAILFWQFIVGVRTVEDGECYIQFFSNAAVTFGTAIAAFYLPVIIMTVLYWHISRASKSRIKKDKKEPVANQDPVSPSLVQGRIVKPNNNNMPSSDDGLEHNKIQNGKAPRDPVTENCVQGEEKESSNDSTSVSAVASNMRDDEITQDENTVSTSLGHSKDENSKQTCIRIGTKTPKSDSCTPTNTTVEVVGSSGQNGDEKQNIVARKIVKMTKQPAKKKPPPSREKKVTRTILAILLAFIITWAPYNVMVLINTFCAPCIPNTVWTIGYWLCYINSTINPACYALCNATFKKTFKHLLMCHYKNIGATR

[5] = Ratio of affinity versus antagonist [3H]-QNB divided by affinity versus agonist [3H]OXO-M; assay type: functional
[6] = molecular target: T2, Muscarinic acetylcholine receptor M4; assay type: cell membranes, CHO
[7] = molecular target: Muscarinic acetylcholine receptor; assay: The binding affinity was measured as inhibition of binding of [3H]- oxotremorine-M to muscarinic acetylcholine receptor in rat cerebral cortical membranes.; assay type: cell membranes, Membrane
[8] = molecular target: Muscarinic acetylcholine receptor; assay type: cell membranes, Rattus norvegicus, Membrane
[9] = molecular target: T4, Muscarinic acetylcholine receptor M2; assay: Inhibition of [3H]- oxotremorine-M binding to human Muscarinic acetylcholine receptor M2 expressed in CHO cell membranes
[10] = molecular target: T1, Muscarinic acetylcholine receptor M1; assay: Inhibition of [3H]- oxotremorine-M binding to human Muscarinic acetylcholine receptor M1 expressed in CHO cell membranes; assay type: cell-based
[11] = molecular target: T5, Muscarinic acetylcholine receptor M1 (Homo sapiens) (UniProt P11229); settings: CHO
T5 sequence (whole entry): T1 sequence (P11229 whole entry)

[12] = molecular target: Muscarinic acetylcholine receptor
Description: Inhibition of [3H]- quinuclidinyl benzilate binding to Muscarinic acetylcholine receptor of rat heart membranes.

[13] = molecular target: Muscarinic acetylcholine receptor; remark: listed apart in the source
[14] = molecular target: Muscarinic acetylcholine receptor; assay: The binding affinity was measured as inhibition of binding of [3H]- quinuclidinyl benzilate to Muscarinic acetylcholine receptor; assay type: protein assay
[15] = molecular target: T5, Muscarinic acetylcholine receptor M1 (Homo sapiens); settings: CHO; at 100 µM
Description: Inhibition of binding of [3H]- quinuclidinyl benzilate to Muscarinic acetylcholine receptor M1 in membranes of CHO cells at 100 uM compound concentration

[16] = molecular target: T3, Muscarinic acetylcholine receptor M3; settings: CHO; at 100 µM
Target sequence in this assay (P20309 whole entry, looked up): as the sequence (P20309 whole entry) above
Description: Inhibition of binding of [3H]- quinuclidinyl benzilate to Muscarinic acetylcholine receptor M3 in membranes of CHO cells at 100 uM compound concentration

[17] = molecular target: T3, Muscarinic acetylcholine receptor M3; assay: The binding affinity was measured as inhibition of binding of [3H]- quinuclidinyl benzilate to m3 Muscarinic acetylcholine receptor M3 in membranes of CHO cells; assay type: cell membranes
Target sequence in this assay (P20309 whole entry): as the sequence (P20309 whole entry) above

[18] = molecular target: T5, Muscarinic acetylcholine receptor M1 (Homo sapiens); assay: Inhibition of binding of [3H]- quinuclidinyl benzilate to Muscarinic acetylcholine receptor M1 in membranes of CHO cells at 100 uM; assay type: cell membranes

SMILES | Ki [2] | Ki [4] | Ratio [5] | Ki [6] | Ki [7] | Ki [8] | Ki [9] | Ki [10] | other results
CN1C2CCCC1C(OC(=O)OCC(Cl)(Cl)Cl)C2 (stereo not given) | 2.3 µM | 0.82 µM | 31 | 0.042 µM | 0.72 µM | 23 µM | 0.92 µM | 1 µM | Ki [1]: 27 µM; Ki [3]: 6.7 µM
CC(=O)OC1CC2CCCC1N2C (stereo not given) | 0.9 µM | – | 330 | – | 0.86 µM | 280 µM | 4.4 µM | 2.3 µM | inhibition (at 100uM) [11]: 11%; Ki [12]: 17 µM; Ki [13]: 0.092 µM
CN1C2CCCC1C(OC(=O)Nc1ccccc1)C2 (stereo not given) | – | – | > 20 | – | 5.1 µM | – | – | – | –
O=C(Nc1ccccc1)OC1CC2CCCC1N2 (stereo not given) | – | – | > 25 | – | 4.3 µM | – | – | – | –
CC(=O)OC1CC2CCCC1N2 (stereo not given) | 0.004 µM | – | 11000 | – | 0.002 µM | – | 0.007 µM | 0.0046 µM | Ki [14]: 22 µM; Ki [12]: 0.4 µM; Ki [13]: 0.00095 µM
COc1ccc(C(=O)OC2CC3CCCC2N3)cc1 (stereo not given) | – | – | > 60 | – | 1.7 µM | – | – | – | –
O=C1CCCN1CC#CCN1CCCC1 [OXOTREMORINE] | 0.0015 µM | 0.66 µM | 4500 | 0.16 µM | 0.013 µM | 58 µM | 0.038 µM | 0.017 µM | inhibition [15]: 9%; Ki [12]: 0.33 µM; Ki [13]: 0.006 µM; inhibition [16]: 28%
C[C@@H]1O[C@H](C[N+](C)(C)C)C[C@H]1O [MUSCARINE] | 0.023 µM | – | – | 1.4 µM | – | – | – | – | inhibition [15]: 2%; inhibition [16]: 28%
CN1C2CCCC1C(OC(=O)C1CCCCC1)C2 (stereo not given) | 0.7 µM | 0.73 µM | 13 | 0.3 µM | 0.86 µM | 8.5 µM | 1.6 µM | 0.45 µM | Ki [1]: 7 µM; Ki [3]: 3 µM
CN1C2CCCC1C(OC(=O)c1ccccc1)C2 (stereo not given) | 0.91 µM | 0.26 µM | 2.1 | 0.41 µM | 0.86 µM | 1.8 µM | 1.3 µM | 0.27 µM | Ki [12]: 1.4 µM; Ki [1]: 7.7 µM; Ki [3]: 3.2 µM; Ki [13]: 0.79 µM
CCC(=O)OC1CC2CCCC1N2C (stereo not given) | 1.4 µM | 2.4 µM | > 70 | 0.96 µM | 1.5 µM | – | 1.2 µM | 0.23 µM | inhibition [15]: 46%; Ki [3]: 7.4 µM
O=C(OC1CC2CCCC1N2)C1CCCCC1 (stereo not given) | 2.2 µM | 3.6 µM | 13 | 0.84 µM | 1.9 µM | 25 µM | 9 µM | 0.97 µM | Ki [1]: 20 µM; Ki [3]: 7.5 µM
COc1ccccc1C(=O)OC1CC2CCCC1N2 (stereo not given) | – | – | 19 | – | 2.8 µM | 53 µM | – | – | –
CCCC(=O)OC1CC2CCCC1N2C (stereo not given) | – | – | 28 | – | 1.2 µM | 34 µM | – | – | –
CCCC(=O)OC1CC2CCCC1N2 (stereo not given) | – | – | 190 | – | 0.16 µM | 30 µM | – | – | –
O=C(OC1CC2CCCC1N2)c1ccc([N+](=O)[O-])cc1 (stereo not given) | 0.45 µM | 0.36 µM | 5.1 | 0.048 µM | 0.43 µM | 2.2 µM | 0.31 µM | 0.029 µM | Ki [17]: 0.45 µM; Ki [1]: 0.78 µM
COc1ccc(C(=O)OC2CC3CCCC2N3C)cc1 (stereo not given) | – | – | > 15 | – | 7.3 µM | – | – | – | –
CN(C)C(=O)OC1CC2CCCC1N2C (stereo not given) | – | – | > 60 | – | – | – | – | – | –
CN(C)C(=O)OC1CC2CCCC1N2 (stereo not given) | – | – | > 60 | – | 1.7 µM | – | – | – | –
CCC(=O)OC1CC2CCCC1N2 (stereo not given) | 0.085 µM | 3.1 µM | 1100 | 0.66 µM | 0.03 µM | 32 µM | 0.19 µM | 0.19 µM | inhibition [18]: 36%; Ki [3]: 11.4 µM
COc1ccccc1C(=O)OC1CC2CCCC1N2C (stereo not given) | – | – | 22 | – | 1.4 µM | 31 µM | – | – | –
CN1C2CCCC1C(OS(C)(=O)=O)C2 (stereo not given) | – | – | > 100 | – | 2.2 µM | – | – | – | –
CS(=O)(=O)OC1CC2CCCC1N2 (stereo not given) | – | – | > 100 | – | 2.7 µM | – | – | – | –
CN1C2CCCC1C(OC(=O)c1ccc([N+](=O)[O-])cc1)C2 (stereo not given) | – | – | > 10 | – | 14 µM | – | – | – | –
O=C(OC1CC2CCCC1N2)c1ccccc1 (stereo not given) | 0.5 µM | 0.3 µM | 1.2 | 0.19 µM | 0.65 µM | 0.8 µM | 1.7 µM | 0.12 µM | Ki [12]: 1.4 µM; Ki [1]: 2.8 µM; Ki [3]: 1.3 µM; Ki [13]: 0.44 µM
